# Measured values published in patent publication US7943340B2, “Fungal dipeptidyl peptidase IV (DPPIV) enzyme for reagent use” (priority 2003, dated 2011).
# Like-named read-outs stand apart in the source and are kept apart here. Where a SMILES comes first, the peptide text is derived from it. [ ]: non-standard residue; d: D form. The star is where a group is joined. Sta = CC(C)C[C@H](N)[C@@H](O)CC(=O)O; Isovaleryl = CC(C)CC(=O)*
# What was measured:
# ruLAP2 = ruLAP2 (Trichophyton rubrum, UniProt Q5QHG6); assay type: biochemical; conditions: for effect of inhibitor on ruLAP2 activity: Leu-AMC 5 mM, inhibitor concentrations; for ruLAP2 hydrolytic activity, percentage of control without any cation / ruLAP2 hydrolytic activity, percentage of control without inhibitor: Leu-MCA substrate
# Sequence of ruLAP2 (Q5QHG6 22-495): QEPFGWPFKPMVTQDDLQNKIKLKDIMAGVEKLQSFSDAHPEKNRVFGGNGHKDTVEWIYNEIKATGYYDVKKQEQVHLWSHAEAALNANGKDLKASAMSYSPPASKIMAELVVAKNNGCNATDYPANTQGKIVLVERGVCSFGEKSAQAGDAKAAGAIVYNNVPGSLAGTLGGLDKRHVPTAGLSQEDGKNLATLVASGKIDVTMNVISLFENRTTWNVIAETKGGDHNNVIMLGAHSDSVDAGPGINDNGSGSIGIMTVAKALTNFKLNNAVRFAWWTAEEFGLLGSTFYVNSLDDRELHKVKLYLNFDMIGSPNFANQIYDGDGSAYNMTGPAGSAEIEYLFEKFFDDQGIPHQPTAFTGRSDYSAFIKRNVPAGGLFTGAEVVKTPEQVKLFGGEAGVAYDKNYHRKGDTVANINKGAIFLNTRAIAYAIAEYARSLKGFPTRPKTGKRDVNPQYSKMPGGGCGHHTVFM
# Procedure: (§1) Inhibitors and metallic cations were pre-incubated with the enzymes for 15 min at 37° C. Then, Leu-AMC at a 5 mM final concentration was added. After further incubation for 60 min, enzyme activity was measured as described above. The inhibitors and their concentrations tested purified LAPs were: 500 μM amastatin (Bachem), 40 μM benzamidine (Sigma), 500 μM bestatin (Bachem), 5 mM/l mM EDTA (Sigma). 100 μM E-64 (L-trans-epoxysuccinyl-leu-4-guanidinobutylamide) (Bachem), 100 μM leupeptin (Sigma), 5 mM/1 mM ortho-phenanthroline (Sigma), 500 μM p-chloromercuribenzoic acid (Sigma), 100 μM pepstatin A (Sigma), 40 μM PMSF (Sigma), 20 μM TLCK (Roche Diagnostics), and 20 μM TPCK (Roche Diagnostics).
# ruLAP1 = ruLAP1 (Trichophyton rubrum, UniProt Q5QHG5); assay type: biochemical; conditions: for ruLAP1 hydrolytic activity, percentage of control without any cation / ruLAP1 hydrolytic activity, percentage of control without inhibitor: Leu-MCA substrate; for effect of inhibitor on ruLAP1 activity: Leu-AMC 5 mM, inhibitor concentrations, pepstatin 0.1 mM
# Sequence of ruLAP1 (Q5QHG5 19-373): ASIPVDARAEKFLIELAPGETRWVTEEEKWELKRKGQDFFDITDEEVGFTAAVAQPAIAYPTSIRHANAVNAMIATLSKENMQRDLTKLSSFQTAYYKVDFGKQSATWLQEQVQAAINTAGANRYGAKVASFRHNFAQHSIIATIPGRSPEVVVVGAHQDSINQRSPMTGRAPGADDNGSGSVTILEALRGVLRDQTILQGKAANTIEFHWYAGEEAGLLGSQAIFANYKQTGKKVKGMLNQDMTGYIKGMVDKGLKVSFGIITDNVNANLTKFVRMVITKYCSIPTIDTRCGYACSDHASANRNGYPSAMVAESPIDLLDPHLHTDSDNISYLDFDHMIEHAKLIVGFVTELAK
# Procedure: as §1
# fuLAP1 = fuLAP1 (Aspergillus fumigatus, UniProt Q5VJG6); assay type: biochemical; conditions: for fuLAP1 hydrolytic activity, percentage of control without any cation / fuLAP1 hydrolytic activity, percentage of control without inhibitor: Leu-MCA substrate; for effect of divalent cation on fuLAP1 activity: Leu-AMC substrate; for effect of inhibitor on fuLAP1 activity: Leu-AMC 5 mM, inhibitor concentrations, pepstatin 0.1 mM
# Sequence of fuLAP1 (Q5VJG6 15-388, looked up, natural form): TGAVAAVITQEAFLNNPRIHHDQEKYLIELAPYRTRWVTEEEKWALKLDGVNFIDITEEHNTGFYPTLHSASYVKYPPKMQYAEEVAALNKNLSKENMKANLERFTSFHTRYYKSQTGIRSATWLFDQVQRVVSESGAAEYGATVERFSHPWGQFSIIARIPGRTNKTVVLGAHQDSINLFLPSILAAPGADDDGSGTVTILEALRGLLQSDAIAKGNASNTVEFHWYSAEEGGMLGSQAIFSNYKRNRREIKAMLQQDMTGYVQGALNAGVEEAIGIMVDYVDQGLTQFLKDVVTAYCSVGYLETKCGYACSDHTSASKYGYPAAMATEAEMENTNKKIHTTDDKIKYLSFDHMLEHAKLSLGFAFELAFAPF
# Procedure: as §1
# fuLAP2 = assay type: biochemical, Aspergillus fumigatus; conditions: for fuLAP2 hydrolytic activity, percentage of control without any cation / fuLAP2 hydrolytic activity, percentage of control without inhibitor: Leu-MCA substrate; for effect of divalent cation on fuLAP2 activity: Leu-AMC substrate
# Procedure: as §1
# [1] = biological target: T1, pkLAP (microsomal LAP from porcine kidney) (Sus scrofa, UniProt P15145); test: Effect of chemical reagents (inhibitors, metallic cations) on LAP activity with Leu-AMC; assay type: biochemical; conditions: for pkLAP hydrolytic activity, percentage of control without any cation / pkLAP hydrolytic activity, percentage of control without inhibitor: Leu-MCA substrate; for effect of divalent cation on pkLAP activity: Leu-AMC substrate
# T1 construct: purchased Sigma; host or cells: porcine kidney
# T1 sequence (P15145 1-963): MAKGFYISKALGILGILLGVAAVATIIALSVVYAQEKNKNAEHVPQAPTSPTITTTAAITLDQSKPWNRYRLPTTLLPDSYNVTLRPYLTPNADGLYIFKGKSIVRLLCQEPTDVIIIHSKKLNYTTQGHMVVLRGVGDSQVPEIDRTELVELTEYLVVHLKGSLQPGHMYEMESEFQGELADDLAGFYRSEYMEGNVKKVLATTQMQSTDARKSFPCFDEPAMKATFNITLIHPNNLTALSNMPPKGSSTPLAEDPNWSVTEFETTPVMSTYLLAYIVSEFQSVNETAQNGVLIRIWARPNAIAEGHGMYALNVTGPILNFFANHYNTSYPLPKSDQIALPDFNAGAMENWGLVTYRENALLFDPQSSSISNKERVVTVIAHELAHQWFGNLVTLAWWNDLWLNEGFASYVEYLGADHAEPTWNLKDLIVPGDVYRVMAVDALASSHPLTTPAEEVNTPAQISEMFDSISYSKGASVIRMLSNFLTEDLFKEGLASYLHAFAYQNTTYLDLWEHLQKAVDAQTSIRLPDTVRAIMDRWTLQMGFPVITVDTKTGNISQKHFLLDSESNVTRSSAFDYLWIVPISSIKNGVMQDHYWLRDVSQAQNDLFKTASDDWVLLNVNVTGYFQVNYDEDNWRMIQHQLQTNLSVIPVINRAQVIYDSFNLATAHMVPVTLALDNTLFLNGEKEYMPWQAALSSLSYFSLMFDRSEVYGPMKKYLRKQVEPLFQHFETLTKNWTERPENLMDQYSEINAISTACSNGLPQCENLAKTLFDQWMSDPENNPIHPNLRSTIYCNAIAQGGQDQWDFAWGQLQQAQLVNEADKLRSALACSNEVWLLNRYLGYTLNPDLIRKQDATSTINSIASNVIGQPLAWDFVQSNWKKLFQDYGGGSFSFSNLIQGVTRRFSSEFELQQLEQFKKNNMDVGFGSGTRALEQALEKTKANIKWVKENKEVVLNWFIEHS
# Procedure: as §1
# [2] = Leu-AMC 5 mM, inhibitor concentrations
SMILES,"ruLAP1 hydrolytic activity, percentage of control without any cation (ruLAP1; cation salt 0.5 mM) [%]","ruLAP1 hydrolytic activity, percentage of control without any cation (ruLAP1; cation salt 1 mM) [%]","ruLAP2 hydrolytic activity, percentage of control without any cation (ruLAP2; cation salt 0.5 mM) [%]","ruLAP2 hydrolytic activity, percentage of control without any cation (ruLAP2; cation salt 1 mM) [%]","fuLAP1 hydrolytic activity, percentage of control without any cation (fuLAP1; cation salt 0.5 mM) [%]","fuLAP1 hydrolytic activity, percentage of control without any cation (fuLAP1; cation salt 1 mM) [%]","fuLAP2 hydrolytic activity, percentage of control without any cation (fuLAP2; cation salt 0.5 mM) [%]","fuLAP2 hydrolytic activity, percentage of control without any cation (fuLAP2; cation salt 1 mM) [%]","pkLAP hydrolytic activity, percentage of control without any cation ([1]; cation salt 0.5 mM) [%]","pkLAP hydrolytic activity, percentage of control without any cation ([1]; cation salt 1 mM) [%]",other results
"CC(C)C[C@H](NC(=O)[C@H]1O[C@@H]1C(=O)O)C(=O)NCCCCN=C(N)N (relative stereo) [E64, L-trans-epoxysuccinyl-leu-4-guanidinobutylamide]",–,–,–,–,–,–,–,–,–,–,effect of inhibitor on ruLAP2 activity (ruLAP2): blunted the activity
[Ca+2].[Cl-].[Cl-] [CaCl2],151.7,175.6,126.6,141.9,54.9,43.3,110.0,165.4,177.4,161.8,–
[Ca+2] [Ca^++],–,–,–,–,–,–,–,–,–,–,effect of divalent cation on fuLAP1 activity (fuLAP1): inhibited; effect of divalent cation on fuLAP2 activity (fuLAP2): activated
"[Cl][Cu][Cl] [Cu^++, CuCl2]",–,–,50.9,34.7,25.8,17.0,68.9,73.6,1422.0,1092.4,effect of divalent cation on pkLAP activity [1]: highly activated
CC(C)C[C@H](NC(=O)[C@H]1O[C@@H]1C(=O)O)C(=O)NCCCCN=C(N)N [E 64],–,–,–,–,–,–,–,–,–,–,"ruLAP1 hydrolytic activity, percentage of control without inhibitor (ruLAP1; inhibitor 100 μM): 103%; ruLAP2 hydrolytic activity, percentage of control without inhibitor (ruLAP2; inhibitor 100 μM): 34%; fuLAP1 hydrolytic activity, percentage of control without inhibitor (fuLAP1; inhibitor 100 μM): 190%; fuLAP2 hydrolytic activity, percentage of control without inhibitor (fuLAP2; inhibitor 100 μM): 71%; pkLAP hydrolytic activity, percentage of control without inhibitor ([1]; inhibitor 100 μM): 93%"
O=C(O)CN(CCN(CC(=O)O)CC(=O)O)CC(=O)O [EDTA],–,–,–,–,–,–,–,–,–,–,effect of inhibitor on ruLAP1 activity (ruLAP1): more sensitive; effect of inhibitor on ruLAP2 activity (ruLAP2): more sensitive
[Cl-].[Cl-].[Mg+2] [MgCl2],129.9,132.6,121.2,110.2,68.5,72.6,97.6,108.0,130.1,146.1,–
"[Cl][Mn][Cl] [Mn^++, MnCl2]",120.7,105.2,77.5,86.8,25.9,28.4,84.3,140.2,157.6,165.8,effect of divalent cation on fuLAP1 activity (fuLAP1): inhibited; effect of divalent cation on fuLAP2 activity (fuLAP2): activated
"[Cl][Ni][Cl] [Ni, NiCl2]",74.8,58.1,130.5,147.9,51.7,37.2,98.4,149.3,1187.7,1158.7,effect of divalent cation on pkLAP activity [1]: highly activated
"[Cl-].[Cl-].[Zn+2] [Zn, ZnCl2]",43.0,68.9,77.9,88.9,60.7,53.2,51.4,119.5,437.6,297.9,effect of divalent cation on pkLAP activity [1]: highly activated
CC(C)C[C@H](NC(=O)[C@@H](O)[C@H](N)Cc1ccccc1)C(=O)O [bestatin],–,–,–,–,–,–,–,–,–,–,"effect of inhibitor on ruLAP1 activity (ruLAP1): inhibited; effect of inhibitor on ruLAP2 activity (ruLAP2): only partial inhibitory effect; effect of inhibitor on fuLAP1 activity (fuLAP1): inhibited; effect of inhibitor on fuLAP2 activity (fuLAP2; [2]): only partial inhibitory effect; fuLAP2 hydrolytic activity, percentage of control without inhibitor (fuLAP2; inhibitor 500 μM): 88%; effect of inhibitor on pkLAP activity [1, 2]: inhibited"
c1cnc2c(c1)ccc1cccnc12 [orthophenanthroline],–,–,–,–,–,–,–,–,–,–,"ruLAP1 hydrolytic activity, percentage of control without inhibitor (ruLAP1; inhibitor 1 mM): 0%; ruLAP1 hydrolytic activity, percentage of control without inhibitor (ruLAP1; inhibitor 5 mM): 0%; ruLAP2 hydrolytic activity, percentage of control without inhibitor (ruLAP2; inhibitor 1 mM): 0%; ruLAP2 hydrolytic activity, percentage of control without inhibitor (ruLAP2; inhibitor 5 mM): 0%; fuLAP1 hydrolytic activity, percentage of control without inhibitor (fuLAP1; inhibitor 1 mM): 0%; fuLAP1 hydrolytic activity, percentage of control without inhibitor (fuLAP1; inhibitor 5 mM): 0%; fuLAP2 hydrolytic activity, percentage of control without inhibitor (fuLAP2; inhibitor 1 mM): 0%; fuLAP2 hydrolytic activity, percentage of control without inhibitor (fuLAP2; inhibitor 5 mM): 0%; pkLAP hydrolytic activity, percentage of control without inhibitor ([1]; inhibitor 1 mM): 0%; pkLAP hydrolytic activity, percentage of control without inhibitor ([1]; inhibitor 5 mM): 0%"
"CC(C)CC(=O)N[C@H](C(=O)N[C@H](C(=O)N[C@@H](CC(C)C)[C@@H](O)CC(=O)N[C@@H](C)C(=O)N[C@@H](CC(C)C)[C@@H](O)CC(=O)O)C(C)C)C(C)C [pepstatin, pepstatin A] (Isovaleryl-VV[Sta]A[Sta]-OH)",–,–,–,–,–,–,–,–,–,–,"effect of inhibitor on ruLAP1 activity (ruLAP1): some sensitivity; effect of inhibitor on fuLAP1 activity (fuLAP1): some sensitivity; fuLAP2 hydrolytic activity, percentage of control without inhibitor (fuLAP2; inhibitor 100 μM): 73%"
